Laboratory results taken from US8450317B2, “CXCR3 receptor antagonists” (Boehringer Ingelheim International GmbH, priority 2009, dated 2013).

Target: CXCR3 (Macaca fascicularis, UniProt A0A2K5UV19)
Assay: functional cellular assay measuring calcium flux in CXCR3 transfected cells (block of CXCR3/IP-10 interaction)
Format: cell-based, Cyno
Settings: IP-10 induced intracellular calcium flux; Cyno-CHO cells stably expressing recombinant CXCR3 and G-alpha-16; IP-10 at EC80; read-out: IC50
Procedure: Compounds are assessed for the ability to block the interaction of CXCR3 and IP-10 in a functional cellular assay measuring calcium flux in CXCR3 transfected cells.
Cyno-CHO cells, stably expressing recombinant CXCR3 and G-alpha-16 are grown in F12 medium (Mediatech #45000-360) supplemented with 10% (V/V) FBS (Mediatech #35-01500), 1% Geneticin (Invitrogen #10131-027) and 0.2% Zeocin (Invitrogen #R250-05). The cells are spun down and re-suspended in growth media to a concentration of […]. 25 microL of cell suspension is added to each well of a BD-384-well TC treated plate, providing 12,000 cells/well. The plate is incubated at 37° C./5% CO2 overnight. On the day of the assay, the plates are removed, the media is flicked out and 25 microL of Ca-4 dye in assay buffer (HBSS, 10 mM HEPES ph 7.4), containing 2 mM probenacid is added to each well. The cell assay plates are then incubated at 37° C./5% CO2 for one hour.
Test compounds are dissolved in DMSO and diluted to 1.045 mM in DMSO. Just prior to assay, 2.75 microL of appropriately diluted test compound are added to each well of a 384 well plate containing 45 microL of HBSS buffer. After mixing, 5 microL of diluted compound are added to each well of the cell assay plate for a final assay concentration of 10 microM. The plate is incubated at room temperature for 15 min. 10 microL of IP-10 stock solution in HBSS (4× EC80 concentration) are added to each well of the cell assay plate except those cells reserved as blank wells containing buffer only. Intracellular calcium flux is recorded on the HAMAMTSU FDSS6000, using excitation at 480 nm and emission at 540 nm. Data are analyzed using Activity Base software.
In general, the preferred potency range (IC50) of compounds in the above assay is between 1 nM to 3 μM, and the most preferred potency range is 1 nM to 200 nM.

Sequence of CXCR3 (A0A2K5UV19 entry or part of it): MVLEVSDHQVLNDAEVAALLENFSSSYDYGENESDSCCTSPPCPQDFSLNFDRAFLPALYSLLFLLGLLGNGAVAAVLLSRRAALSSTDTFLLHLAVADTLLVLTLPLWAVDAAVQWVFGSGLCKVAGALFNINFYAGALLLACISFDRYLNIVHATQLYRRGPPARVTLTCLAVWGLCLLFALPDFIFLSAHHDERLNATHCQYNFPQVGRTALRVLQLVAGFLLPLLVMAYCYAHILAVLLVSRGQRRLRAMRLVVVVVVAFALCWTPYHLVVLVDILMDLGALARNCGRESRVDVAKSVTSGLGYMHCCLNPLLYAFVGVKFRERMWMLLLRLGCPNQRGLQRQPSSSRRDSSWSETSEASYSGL

| SMILES | IC50 [nM] |
| --- | --- |
| O=C(Cn1cnc2cccnc21)N1CCN(c2ccc(F)cc2-c2cnc(N3CCOCC3)nc2)CC1 [1-(4-{4-fluoro-2-[2-(morpholin-4-yl)pyrimidin-5-yl]phenyl}piperazin-1-yl)-2-(3H-imidazo[4,5-b]pyridin-3-yl)ethanone] | 24 |
| O=C(Cn1ccc2ccncc21)N1CCN(c2ccc(F)cc2-c2cnc(N3CCCC3)nc2)CC1 [1-(4-{4-fluoro-2-[2-(pyrrolidin-1-yl)pyrimidin-5-yl]phenyl}piperazin-1-yl)-2-(1H-pyrrolo[2,3-c]pyridin-1-yl)ethanone] | 14 |
| CC1CN(c2ccc(C(F)(F)F)cc2-c2cnc(S(C)(=O)=O)nc2)CCN1C(=O)CN1CCCCC1=O (stereo not shown) [1-[2-(2-methyl-4-{2-[2-(methylsulfonyl)pyrimidin-5-yl]-4-(trifluoromethyl)phenyl}piperazin-1-yl)-2-oxoethyl]piperidin-2-one] | 310 |
| CC1CN(c2ccccc2-c2cnc(S(C)(=O)=O)nc2)CCN1C(=O)Cn1c(=O)[nH]c2ccccc21 (stereo not shown) [1-[2-(2-methyl-4-{2-[2-(methylsulfonyl)pyrimidin-5-yl]phenyl}piperazin-1-yl)-2-oxoethyl]-1,3-dihydro-2H-benzimidazol-2-one] | 63 |
| O=C(Cn1c(=O)[nH]c2ccccc21)N1CCN(c2ccccc2-c2ccccc2)CC1 [1-[2-(4-Biphenyl-2-yl-piperazin-1-yl)-2-oxo-ethyl]-1,3-dihydro-benzoimidazol-2-one] | 140 |
| CC1CN(c2ccc(C(F)(F)F)cc2-c2cnc(N3CCC(O)CC3)nc2)CCN1C(=O)Cn1c(=O)[nH]c2ccccc21 (stereo not shown) [1-[2-(4-{2-[2-(4-hydroxypiperidin-1-yl)pyrimidin-5-yl]-4-(trifluoromethyl)phenyl}-2-methylpiperazin-1-yl)-2-oxoethyl]-1,3-dihydro-2H-benzimidazol-2-one] | 9 |
| CC1CN(c2ccc(C(F)(F)F)cc2-c2cnc(N3CCC(O)CC3)nc2)CCN1C(=O)CN1CCCCC1=O (stereo not shown) [1-[2-(4-{2-[2-(4-hydroxypiperidin-1-yl)pyrimidin-5-yl]-4-(trifluoromethyl)phenyl}-2-methylpiperazin-1-yl)-2-oxoethyl]piperidin-2-one] | 11 |
| CC1CN(c2ccccc2-c2cnc(N3CCC(O)CC3)nc2)CCN1C(=O)CN1CCCCC1=O (stereo not shown) [1-[2-(4-{2-[2-(4-hydroxypiperidin-1-yl)pyrimidin-5-yl]phenyl}-2-methylpiperazin-1-yl)-2-oxoethyl]piperidin-2-one] | 19 |
| O=C(CN1CCCCC1=O)N1CCN(c2ccc(F)cc2-c2cnc(N3CCC(O)CC3)nc2)CC1 [1-[2-(4-{4-fluoro-2-[2-(4-hydroxypiperidin-1-yl)pyrimidin-5-yl]phenyl}piperazin-1-yl)-2-oxoethyl]piperidin-2-one] | 16 |
| CN1CCN(c2ncc(-c3cc(F)ccc3N3CCN(C(=O)CN4CCCCC4=O)CC3)cn2)CC1 [1-[2-(4-{4-fluoro-2-[2-(4-methylpiperazin-1-yl)pyrimidin-5-yl]phenyl}piperazin-1-yl)-2-oxoethyl]piperidin-2-one] | 94 |
| CS(=O)(=O)c1ncc(-c2cc(F)ccc2N2CCN(C(=O)Cn3c(=O)[nH]c4ccccc43)CC2)cn1 [1-[2-(4-{4-fluoro-2-[2-(methylsulfonyl)pyrimidin-5-yl]phenyl}piperazin-1-yl)-2-oxoethyl]-1,3-dihydro-2H-benzimidazol-2-one] | 47 |
| O=C(CN1CCCCC1=O)N1CCN(c2ccc(F)cc2-c2cnc(N3CCOCC3)nc2)CC1 [1-[2-(4-{4-fluoro-2-[2-(morpholin-4-yl)pyrimidin-5-yl]phenyl}piperazin-1-yl)-2-oxoethyl]piperidin-2-one] | 30 |
| CC1CN(c2ccc(F)cc2-c2cnc(N3CCC(S(C)(=O)=O)CC3)nc2)CCN1C(=O)Cn1ccc2cccnc21 (stereo not shown) [1-[4-(4-fluoro-2-{2-[4-(methylsulfonyl)piperidin-1-yl]pyrimidin-5-yl}phenyl)-2-methylpiperazin-1-yl]-2-(1H-pyrrolo[2,3-b]pyridin-1-yl)ethanone] | 8 |
| CC1CN(c2ccc(F)cc2-c2cnc(N3CCC(S(C)(=O)=O)CC3)nc2)CCN1C(=O)Cn1ccc2ccncc21 (stereo not shown) [1-[4-(4-fluoro-2-{2-[4-(methylsulfonyl)piperidin-1-yl]pyrimidin-5-yl}phenyl)-2-methylpiperazin-1-yl]-2-(1H-pyrrolo[2,3-c]pyridin-1-yl)ethanone] | 8 |

Further compounds by falling IC50, results first:

| IC50 [nM] | SMILES |
| --- | --- |
| 111 | Cc1cc(C)n(CC(=O)N2CCN(c3ccccc3-c3cccc(Cl)c3)CC2)n1 [1-[4-(3′-Chloro-biphenyl-2-yl)-piperazin-1-yl]-2-(3,5-dimethyl-pyrazol-1-yl)-ethanone] |
| 60 | CC1CN(c2ccc(F)cc2-c2cnc(S(C)(=O)=O)nc2)CCN1C(=O)Cn1c(=O)[nH]c2ccccc21 (stereo not shown) [1-[2-(4-{4-fluoro-2-[2-(methylsulfonyl)pyrimidin-5-yl]phenyl}-2-methylpiperazin-1-yl)-2-oxoethyl]-1,3-dihydro-2H-benzimidazol-2-one] |
| 23 | O=C(CN1CCCCC1=O)N1CCN(c2ccc(F)cc2-c2cnc(N3CCCC3)nc2)CC1 [1-[2-(4-{4-fluoro-2-[2-(pyrrolidin-1-yl)pyrimidin-5-yl]phenyl}piperazin-1-yl)-2-oxoethyl]piperidin-2-one] |
| 20 | CC1CN(c2ccc(C(F)(F)F)cc2-c2cnc(S(C)(=O)=O)nc2)CCN1C(=O)Cn1c(=O)[nH]c2ccccc21 (stereo not shown) [1-[2-(2-methyl-4-{2-[2-(methylsulfonyl)pyrimidin-5-yl]-4-(trifluoromethyl)phenyl}piperazin-1-yl)-2-oxoethyl]-1,3-dihydro-2H-benzimidazol-2-one] |
| 15 | O=C(Cn1ccc2cccnc21)N1CCN(c2ccc(F)cc2-c2cnc(N3CCCC3)nc2)CC1 [1-(4-{4-fluoro-2-[2-(pyrrolidin-1-yl)pyrimidin-5-yl]phenyl}piperazin-1-yl)-2-(1H-pyrrolo[2,3-b]pyridin-1-yl)ethanone] |
| 14 | O=C(Cn1cnc2cccnc21)N1CCN(c2ccc(F)cc2-c2cnc(N3CCCC3)nc2)CC1 [1-(4-{4-fluoro-2-[2-(pyrrolidin-1-yl)pyrimidin-5-yl]phenyl}piperazin-1-yl)-2-(3H-imidazo[4,5-b]pyridin-3-yl)ethanone] |
| 14 | CN1CCN(c2ncc(-c3cc(F)ccc3N3CCN(C(=O)Cn4c(=O)[nH]c5ccccc54)CC3)cn2)CC1 [1-[2-(4-{4-fluoro-2-[2-(4-methylpiperazin-1-yl)pyrimidin-5-yl]phenyl}piperazin-1-yl)-2-oxoethyl]-1,3-dihydro-2H-benzimidazol-2-one] |
| 14 | O=C(Cn1c(=O)[nH]c2ccccc21)N1CCN(c2ccc(F)cc2-c2cnc(N3CCCC3)nc2)CC1 [1-[2-(4-{4-fluoro-2-[2-(pyrrolidin-1-yl)pyrimidin-5-yl]phenyl}piperazin-1-yl)-2-oxoethyl]-1,3-dihydro-2H-benzimidazol-2-one] |
| 13 | CC1CN(c2ccc(F)cc2-c2cnc(N3CCC(S(C)(=O)=O)CC3)nc2)CCN1C(=O)Cn1cnc2cccnc21 (stereo not shown) [1-[4-(4-fluoro-2-{2-[4-(methylsulfonyl)piperidin-1-yl]pyrimidin-5-yl}phenyl)-2-methylpiperazin-1-yl]-2-(3H-imidazo[4,5-b]pyridin-3-yl)ethanone] |
| 11 | O=C(Cn1c(=O)[nH]c2ccccc21)N1CCN(c2ccc(F)cc2-c2cnc(N3CCOCC3)nc2)CC1 [1-[2-(4-{4-fluoro-2-[2-(morpholin-4-yl)pyrimidin-5-yl]phenyl}piperazin-1-yl)-2-oxoethyl]-1,3-dihydro-2H-benzimidazol-2-one] |
| 9 | CC1CN(c2ccccc2-c2cnc(N3CCC(S(C)(=O)=O)CC3)nc2)CCN1C(=O)Cn1ccc2cccnc21 (stereo not shown) [1-[2-methyl-4-(2-{2-[4-(methylsulfonyl)piperidin-1-yl]pyrimidin-5-yl}phenyl)piperazin-1-yl]-2-(1H-pyrrolo[2,3-b]pyridin-1-yl)ethanone] |
| 8 | CC1CN(c2ccccc2-c2cnc(N3CCC(O)CC3)nc2)CCN1C(=O)Cn1c(=O)[nH]c2ccccc21 (stereo not shown) [1-[2-(4-{2-[2-(4-hydroxypiperidin-1-yl)pyrimidin-5-yl]phenyl}-2-methylpiperazin-1-yl)-2-oxoethyl]-1,3-dihydro-2H-benzimidazol-2-one] |
| 8 | O=C(Cn1c(=O)[nH]c2ccccc21)N1CCN(c2ccc(F)cc2-c2cnc(N3CCC(O)CC3)nc2)CC1 [1-[2-(4-{4-fluoro-2-[2-(4-hydroxypiperidin-1-yl)pyrimidin-5-yl]phenyl}piperazin-1-yl)-2-oxoethyl]-1,3-dihydro-2H-benzimidazol-2-one] |
| 8 | CC1CN(c2ccccc2-c2cnc(N3CCC(S(C)(=O)=O)CC3)nc2)CCN1C(=O)Cn1ccc2ccncc21 (stereo not shown) [1-[2-methyl-4-(2-{2-[4-(methylsulfonyl)piperidin-1-yl]pyrimidin-5-yl}phenyl)piperazin-1-yl]-2-(1H-pyrrolo[2,3-c]pyridin-1-yl)ethanone] |
